Literature values as cited in article PMC7114426 (Virus Research, 2012).

System: nsp16

Structure (SMILES) | inhibition of the MTase activity of nsp16
O=C(O)C1=CC(=C(c2ccc(O)c(C(=O)O)c2)c2ccc(O)c(C(=O)O)c2)C=CC1=O [ATA, aurintricarboxylic acid] | inhibit the MTase activity of nsp16
Nc1ncnc2c1ncn2[C@@H]1O[C@H](CSCC[C@H](N)C(=O)O)[C@@H](O)[C@H]1O [SAH, S-adenosyl-l-homocysteine] | inhibit the MTase activity of nsp16
Nc1ncnc2c1ncn2[C@@H]1O[C@H](C[C@@H](N)CC[C@H](N)C(=O)O)[C@@H](O)[C@H]1O [sinefungin] | inhibit the MTase activity of nsp16
